Test results published in patent US10674729B2, “Synergistic combination of 3-IODO-2-propynyl-butylcarbamate and diamine” (priority 2016, dated 2020).

Experiments:
Experiment in all cases: MIC and synergy testing in tryptic soy broth (turbidity reading)
Type in all cases: cell-based
[1] = system: Candida albicans (DSMZ#1386); conditions: 72 hours, 30° C., TSB
Procedure: (§1) The synergism of the biocides combination of the present invention was determined using the method described by Kull, F. C., et. al in Applied Microbiology 9:538-541 (1961). The formula to calculate the synergy index (SI) is Qa/QA+Qb/QB=SI Where • QA=concentration of compound A in ppm, acting alone produced an end point (growth/no growth) • Qa=concentration of compound A in ppm, in the mixture, which produced an end point (growth/no growth) • QB=concentration of compound B in ppm, acting alone produced an end point (growth/no growth) • Qb=concentration of compound B in ppm, in the mixture, which produced an end point (growth/no growth) […]
(§2) • 1. The test was executed with a Hamilton MLStarPlus robot using automated turbidity reading with BioTek Synergy H4 plate reader. • 2. […]
(§3) • The cultures were maintained as glycerol stocks at −80° C. in cryovials, are thawed and then 100 μl spread on MEA (malt extract agar) petri dishes. • The yeast strain plates were incubated at 28° C. for 1-2 days then harvested with buffer pH 5.0. • Based on total viable count results, the inoculum was prepared. • 7. […] Reading of the results was carried out by measuring absorbance at 600 nm for each sample at the beginning of the test (tzero) and after incubation (tendpoint). tendpoint was chosen at 48 hours for bacteria and 72 hours for yeast. […]

[2] = system: Pseudomonas aeruginosa (DSMZ#939); conditions: 48 hours, 30° C., TSB
Procedure: as §1, §2, §3

[3] = system: Staphylococcus aureus (DSMZ#799); conditions: 48 hours, 30° C., TSB
Procedure: as §1, §2, §3

## CCCCNC(=O)OCC#CI [IPBC, 3-Iodo-2-propynyl-butylcarbamate]
[1]
  MIC, single biocide: 6.6 ppm
[2]
  MIC, single biocide: 1400.0 ppm
[3]
  MIC, single biocide: 21.6 ppm
